Data from US20230416782A1, “ENHANCED NANOPARTICLE DELIVERY SYSTEMS” (Children's Hospital Medical Center, priority 2020, published 2023).

How the values were obtained:
[1] = system: luciferase DNP gene transfer; assay: in vivo luciferase DNP gene transfer, drug dosed 2 hours before intratracheal DNP (BLI total photons and lung luciferase activity); conditions: for enhancement of in vivo DNP transfection over time (BLI): 2, 3, 7 and 14 days after DNP; for enhancement of in vivo DNP transfection over time (BLI) / DNP gene delivery efficacy in vivo (BLI total photons and lung luciferase activity): roscovitine 10 mg/kg, spermine 20 mg/kg, ruxolitinib 1 mg/kg, 2 hours prior to intratracheal 100 μg luciferase DNP; for DNP gene delivery efficacy in vivo (BLI total photons and lung luciferase activity): 14 days post DNP administration; for luciferase gene transfer in vivo, Bioluminescent Image (BLI) analysis: day 2, day 3, day 7 and day 14, compared to DNP Alone group; for total photons over a 10 min BLI exposure from the chest ROI, difference from the DNP alone group: day 14 after DNP, spermine 20 mg/kg (P<0.5), roscovitine 10 mg/kg (p<0.01), dosed 2 hours prior to intratracheal 100 μg luciferase DNP; for luciferase gene transfer in vivo, BLI image analysis and luciferase activity assay: versus DNP alone
Protocol: Total photon measurements were taken from the chest of each mouse, ROI outlined in red, and background luminescence was subtracted from mice saline control mice (not shown). B. Total photons collected over a 10 min BLI exposure from the ROI at each day.
All data was collected 14 days post DNP administration. […] The ROI, outlined in red, was consistently drawn on each mouse and used to quantify total photons in each mouse. B. Total photons collected over a 10 min BLI exposure from the ROI. Mice that received saline instead of DNPs (not shown) were used to subtract background from the experimental mice. […] Lungs from mice used in B were harvested immediately after BLI imaging and assayed for luciferase activity. (n>10 for each group, p<0.05, p<0.01, p<0.001)
All data was collected 14 days post DNP administration. […] The ROI, outlined in red, was consistently drawn on each mouse and used to quantify total photons in each mouse. B. Total photons collected over a 10 min BLI exposure from the ROI. Mice that received saline instead of DNPs (not shown) were used to subtract background from the experimental mice. […] Lungs from mice used in B were harvested immediately after BLI imaging and assayed for luciferase activity. (n>10 for each group, mean and SEM shown, p<0.05, p<0.01, p<0.001)

HeLa cells = assay: luciferase DNP transfection of HeLa cells with drug given before, with or after the DNPs (luciferase activity, light-based assay); format: cell-based; conditions: drug four hours before, at the same time as, or four hours after luciferase DNPs, versus DNP alone
Protocol: HeLa cells were transfected with luciferase DNPs either four hours after cells were treated with drug, at the same time as cells were treated with drug, or four hours before cells were treated with drug; DNP alone, RX001 (roscovitine), RX011 (spermine), and RX008 (ruxolitinib).
HeLa cells were transfected with luciferase DNPs either four hours after cells were treated with drug, at the same time as cells were treated with drug, or four hours before cells were treated with drug, DNP alone, RX012 (doxorubicin), RX013 (acetohexamide), and RX014 (sildenafil citrate).
FIG. 12. […] HeLa cell were treated for four hours prior to luciferase DNP administration. Drugs were obtained from a blinded plate. Labels on graphs indicate drugs position on blinded plate. *: p<0.05, **: p<0.01, ***: p<0.001, ***: p<0.0001, compared to DNP Alone group.
(§1) FIG. 17 depicts pharmacological manipulations before, after, and during DNP transfection. Hela cells were given roscovitine (1 μM, CDK1 inhibitor), spermine (1 μM, CKII activator), or ruxolitinib (0.1 μM, JAK inhibitor) at various times during transfection of luciferase DNPs. A. Hela cells were dosed with drugs for 4 hours, washed, and then given luciferase DNPs for 24 hours. B. Hela cells were simultaneously given drug and luciferase DNPs for 24 hr. C. Hela cells were given luciferase DNPs for 4 hours, washed, and then given drug for 24 hr. All cells were then lysed and analyzed for luciferase activity with a light-based assay. (n=8 for each group, signifies p<0.05 and signifies p<0.001).
as §1, with “Hela” for “FIG. 17 depicts pharmacological manipulations before, after, and during DNP transfection. Hela”, “group, mean and SEM shown,” for “group,”, “p<0.001)” for “p<0.001).”

hCFTR gene transfer = assay: in vivo hCFTR gene transfer by DNP with drug (CFTR expression, PCR); set-up: species or system mice; conditions: 2, 4 and 7 days post-DNP administration; versus DNP alone
Description: FIG. 16. Gene transfer of hCFTR is enhanced by pharmacologic manipulation of interactome proteins. DMP alone, RX001 (roscovitine), and RX008 (ruxolitinib), 2 days post-DNP administration, 4 days post-DNP administration and 7 days post-DNP administration.
FIG. 22. CFTR Expression comparison between NHBE cells (normal human bronchial/tracheal epithelial cells), Untreated Mice and Day 2 DNP Treated Mice, and CFTR Expression comparison in Day 4 mice treated with a vehicle (DNP Alone) or drug. Day 4 data represents vector subtracted values for the PCR of CFTR.

Compound	enhancement of in vivo DNP transfection over time (BLI) [1]	DNP gene delivery efficacy in vivo (BLI total photons and lung luciferase activity) [1]	luciferase gene transfer in vivo, Bioluminescent Image (BLI) analysis [1]	total photons over a 10 min BLI exposure from the chest ROI, difference from the DNP alone group [1]	luciferase gene transfer in vivo, BLI image analysis and luciferase activity assay [1]	gene transfer of luciferase in vitro (HeLa cells)	gene transfer of hCFTR (hCFTR gene transfer)
CC[C@H](CO)Nc1nc(NCc2ccccc2)c2ncn(C(C)C)c2n1 [RX001, Roscovitine]	maintained over time	enhancement	enhances	significantly different	enhances	enhanced	enhanced
COc1cccc2c1C(=O)c1c(O)c3c(c(O)c1C2=O)C[C@@](O)(C(=O)CO)C[C@@H]3O[C@H]1C[C@H](N)[C@H](O)[C@H](C)O1 [RX012, Doxorubicin]	–	–	–	–	–	enhanced	–
CCCc1nn(C)c2c(=O)nc(-c3cc(S(=O)(=O)N4CCN(C)CC4)ccc3OCC)[nH]c12 [RX014, Sildenafil]	–	–	–	–	–	enhanced	–
CC(=O)c1ccc(S(=O)(=O)NC(=O)NC2CCCCC2)cc1 [RX013, Acetohexamide]	–	–	–	–	–	enhanced	–
N#CC[C@H](C1CCCC1)n1cc(-c2ncnc3[nH]ccc23)cn1 [RX008, Ruxolitinib]	maintained over time	enhancement	enhances	–	enhances	enhanced	enhanced
NCCCNCCCCNCCCN [RX011, Spermine]	maintained over time	enhancement	enhances	significantly different	enhances	enhanced	–
